Data set [1] deals with deoxymyoglobin (Mb). Conditions: cited from earlier work.
The subject of data set [2] is aortic rings pre-contracted with phenylephrine. As to the kind of experiment: Isolated aortic ring preparation: vessel relaxation in rings pre-contracted with phenylephrine (3 μM). The conditions noted are these: for percentage of relaxation compared to control: after 10 min. The class given is cell-based, male Lewis rats. Here is the method: Transverse ring sections of thoracic aorta were isolated from male Lewis rats and suspended under a 2 g tension in an organ bath containing oxygenated Krebs-Henseleit buffer at 37° C. in a manner previously described^10. The relaxation response to CORM-A1 (40, 80 and 160 μM) was assessed in aortic rings pre-contracted with phenylephrine (3 μM). […] Experiments were also conducted by comparing the effect of CORM-A1 and CORM-3 on vessel relaxation over time.

Data set [3] has the same test system. Put plainly: Isolated aortic ring preparation: relaxation response to CORM-A1 in presence or absence of YC-1, phenylephrine 1 μmol/L. The class given is cell-based, male Lewis rats. Here is the method:
Transverse ring sections of thoracic aorta were isolated from male Lewis rats and suspended under a 2 g tension in an organ bath containing oxygenated Krebs-Henseleit buffer at 37° C. in a manner previously described. […] YC-1 was added to the isolated rings 30 min prior to contraction with phenylephrine.

For data set [4], the system named is mean arterial pressure (MAP). As to the kind of experiment: Effect of CORM-A1 and YC-1 on mean arterial pressure (MAP) in anaesthetised rats. The class given is in vivo, Lewis rats. Here is the method:
Lewis rats (280-350 g) were anaesthetised by intramuscular injection of 1 ml/kg Hypnorm. Specially designed femoral artery and venous catheters were then surgically implanted and mean arterial pressure (MAP) monitored continuously using a polygraph recorder in a manner previously described. The effect of CORM-A1 on mean arterial pressure (MAP) over time was assessed following an intravenous (i.v.) injection of 50 μmol kg^−1. Similar experiments were conducted by administering YC-1 (1.2 μmol kg^−1, i.v.) to animals 5 min prior to the bolus addition of CORM-A1. Control experiments using YC-1 alone were also performed.
Femoral artery and venous catheters were surgically implanted into anesthetized Lewis rats and blood pressure continuously monitored as previously described by us. The effect of CORM-A1 and YC-1 on mean arterial pressure (MAP) in vivo is represented in FIG. 11. The compounds were injected intravenously as a bolus at a final concentration of 50 μmoles/kg for CORM-A1 and 1.2 μmol kg^−1 for YC-1. When the two compounds were given in combination, YC-1 was administered 10 min prior to CORM-A1 injection. As shown, CORM-A1 produced a gradual and sustained decrease in MAP over time; for instance, 60 min after CORM-A1 injection MAP decreased by 6.3±1.5 mmHg from the initial baseline value. Injection with YC-1 alone also produced an effect on blood pressure; however, the decrease in MAP was only transient, reaching a maximum of 5.5±1.0 mmHg after 10 min and returning to basal levels 50 min after injection. […] The data are represented as the mean±s.e.m. of 5 independent experiments for each group. *P<0.05 vs. baseline (−10 min); ^⇑P<0.05 vs. CORM-A1 alone or YC-1 alone.

For data set [5] the following is noted: distilled water at basic pH; cited from earlier work.
In data set [6] the test system is deoxymyoglobin (Mb). As to the kind of experiment: Detection of CO release: conversion of deoxymyoglobin (Mb) to carbonmonoxy myoglobin (MbCO). It is filed as physicochemical. As to the method: The release of CO from CORM-A1 was assessed spectrophotometrically by measuring the conversion of deoxymyoglobin (Mb) to carbonmonoxy myoglobin (MbCO) by a method previously described^23. The amount of MbCO formed was quantified by measuring the absorbance at 540 nm (extinction coefficient=[…]) over time at 37° C. Myoglobin solutions (approximately 50 μmol/L final concentration) were prepared fresh by dissolving the protein in 0.04 M phosphate buffer (pH=7.4). Sodium dithionite (0.1%) was added to convert the oxidized myoglobin to its reduced form prior to each reading. Some experiments were also conducted using Mb at pH=5.5 or at room temperature (RT) in order to examine the kinetic of CO release from CORM-A1 under different chemical and physical conditions.
The amount of MbCO formed after addition of CORM-A1 to the Mb solution can be quantified by measuring the absorbance at 540 nm knowing the extinction coefficient for MbCO (ε=[…]). CORM-A1 at three different concentrations was added to a solution containing Mb at room temperature and the formed MbCO was calculated over time.

Structures are written as SMILES. Read-outs that look alike come from different tables or passages of the source.

`NCC(=O)O.[CH+]=O.[CH+]=O.[CH+]=O.[Cl][Ru]` [CORM-3, Tricarbonylchloro(glycinato)ruthenium(II)]: the “time in which CO is liberated to Mb” value in the data set on deoxymyoglobin (Mb) [1] (added to a solution containing myoglobin (Mb), 1 mole CO per mole compound) was 1 to 2 min. The “CO liberated per mole of compound” value in the data set with deoxymyoglobin (Mb) [1] (added to a solution containing myoglobin (Mb), within 1-2 min) is recorded as 1 mole of CO per mole of compound. Further, the “time of liberation of CO to Mb or in biological systems” value with deoxymyoglobin (Mb) [1] (from recent works) is “approximately 5 min”. Besides, the “time after addition at which the stated relaxation was reached” value in data set [2] (80 μM) fell in the range of 4 to 5 min. Further, the relaxation in data set [2] (80 μM, within 4-5 min) is listed as 75%.
Regarding `[BH3-]C(=O)[O-].[Na+].[Na+]` [CORM-A1, Disodium boranocarbonate], the relaxation in data set [3] (1 μM CORM-A1, vessels pre-treated with YC-1) turned out to be 35±9.8%; in data set [3] (10 μM CORM-A1, vessels pre-treated with YC-1), 51±3.3%; in data set [3] (20 μM after pre-treatment of vessels with YC-1 (1 μM)), 61±6.2%; in data set [3] (20 μM alone, after 20 min) it was 13±4.9%. Further, the “decrease in MAP from initial baseline” value in data set [4] (50 μmoles/kg i.v. bolus, 60 min after injection) is given as 6.3±1.5 mmHg. Besides, the “decrease in MAP” value in data set [4] (CORM-A1 50 μmoles/kg i.v. in combination with YC-1 1.2 μmol kg^−1 given 10 min prior, after 10 min) is 16.1±5.6 mmHg. The stability in water result in data set [5] is “relatively stable”. Further, the “percentage of relaxation compared to control” value in data set [2] (40 μM) was found to be 21.0±2.3%; in data set [2] (80 μM), 40.2±3.4%; in data set [2] (160 μM), 74.9±1.8%. For the same compound, the “time after addition at which the stated relaxation was reached” value in data set [2] (80 μM) is 33 min. Moreover, the “vasorelaxation (in words)” value in data set [2] (80 μM) was “gradual and profound vasorelaxation”. The maximal vasorelaxation in data set [2] (80 μM, 33 min following addition) came out at 96%. The “calculated Ymax of MbCO formed” value in the data set with deoxymyoglobin (Mb) [6] (15.6 μM CORM-A1, room temperature) is 16.7±1.2; with deoxymyoglobin (Mb) [6] (31.1 μM CORM-A1, room temperature), 33.1±1.4; in the data set on deoxymyoglobin (Mb) [6] (46.7 μM CORM-A1, room temperature) it was 48.2±2.5. Moreover, the “conversion of Mb to MbCO” value in the data set with deoxymyoglobin (Mb) [6] (60 μM, pH=7.4, 37° C., MbCO spectrum after 210 min incubation) is listed as “gradual formation of MbCO over time”. Moreover, the “CO liberated per mole of compound” value in the data set on deoxymyoglobin (Mb) [6] (aqueous solution, room temperature, reaction to completion) is listed as “one mole of CO per mole of compound”. The “release of CO at physiological pH” value with deoxymyoglobin (Mb) [6] (physiological pH) is given as 18.4 min.
For `[BH4-].[Na+]` [NaBH4, Sodium borohydride, reference compound], the “vasorelaxation (in words)” value in data set [2] (80 μM) is reported as “totally ineffective”.
Take `OCc1ccc(-c2nn(Cc3ccccc3)c3ccccc23)o1` [YC-1, 3-(5′-hydroxymethyl-2′-furyl)-1-benzyl-indazole, reference compound]: the relaxation in data set [3] (YC-1 alone (1 μM), after 20 min) came to 2.8±1.1%. Moreover, in data set [4] (YC-1 alone 1.2 μmol kg^−1 i.v., after 10 min), the “maximum decrease in MAP” value is listed as 5.5±1.0 mmHg. Also, the “time to return of MAP to basal levels” value in data set [4] (YC-1 alone 1.2 μmol kg^−1 i.v., after injection) is given as 50 min.

The values are drawn from patent US20070065485A1, “Therapeutic delivery of carbon monoxide” (priority 2003, published 2007).
